# Test results taken from PubChem BioAssay (NCI).
# Values joined by “and” are separate entries in the source; they are usually repeats but may differ in a detail not shown here. Equal entries are not always repeated.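 Test compounds were applied to cells in 96-well plates for 48 hours at 5 doses. The concentration for 50% growth inhibition is given as GI50. Definition used: TGI = concentration required for complete inhibition of growth.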 Where a SMILES comes first, the peptide text is derived from it. [ ]: non-standard residue; d: D form. The star is where a group is joined. NMeV = CN[C@H](C(=O)O)C(C)C; X29 = COc1ccc(CN*)c(OC)c1; Octanoyl = CCCCCCCC(=O)*; dNMeA = CN[C@H](C)C(=O)O
# How the values were obtained:
# Test in all cases: NCI anticancer screen, dose series, 48 h
# COLO 205 colon = test system: COLO 205 colon
# HCC-2998 colon = test system: HCC-2998 colon
# NCI-H23 lung = test system: NCI-H23 lung
# NCI-H460 lung = test system: NCI-H460 lung
# OVCAR-3 ovarian = test system: OVCAR-3 ovarian
# U251 CNS = test system: U251 CNS
# MALME-3M melanoma = test system: MALME-3M melanoma
SMILES,TGI (COLO 205 colon) [µM],TGI (HCC-2998 colon) [µM],TGI (NCI-H23 lung) [µM],TGI (NCI-H460 lung) [µM],TGI (OVCAR-3 ovarian) [µM],TGI (U251 CNS) [µM],TGI (MALME-3M melanoma) [µM],GI50 (COLO 205 colon)
COC(=O)[C@@H]1[C@H](OC(C)=O)CCC2[C@@]3(C[C@@H](c4ccoc4)O[C@@H]3OC)[C@H](C)CC[C@]21C(=O)OC (stereo partly specified),> 25,> 25,> 25,> 25,> 25,> 25,–,–
CCCCn1c(N)c(-c2nc3ccccc3o2)sc1=S,> 100,> 100,37.6,42.6,33.9,33,40.2,–
CCN1C(=O)c2cc(OC)c(OC)cc2C(=O)C12OC(=O)c1cc3c(cc12)OCO3 (stereo unspecified),> 100,> 100,> 100,> 100,> 100,> 100,> 100,–
O=C1C=CC2(C=C1)O[C@H](Cc1ccccc1)[C@@H](Cc1ccccc1)O2,2.99,11.1,3.48,30.8,1.17,2.86,4.77,–
CC1(/C=C/CCSc2ccccc2)CC(=O)C2CC1C2(C)C (stereo unspecified),70.6,> 73.5,> 100,71.6,> 91.3,> 83.7,> 69.7,–
COc1cc2c3c(c1)CCCN3CCC2,> 10,> 10,> 10,> 10,> 10,> 10,> 10,–
COC(=O)[C@H](CCSC)NC(=O)N[C@H](C)c1ccccc1,> 100,> 100,> 100,> 100,> 100,> 100,> 100,–
CCCCCCCC(=O)N[C@H](C(=O)N[C@H](C(=O)N(C)[C@H](C(=O)N1CCC[C@H]1C(=O)N(C)[C@H](C)C(=O)NCc1ccc(OC)cc1OC)C(C)C)C(C)C)C(C)C (Octanoyl-VV[NMeV]P[dNMeA]-X29),22.7,> 100,> 82.4,> 100,> 100,> 85.5,24.3,–
N#CC1C(=O)NC23CCCCC2C1c1ccccc1O3 (stereo unspecified),> 100,> 100,> 100,> 100,> 100,> 100,> 100,–
COC(=O)[C@@H]1CC(C(C[N+](=O)[O-])c2ccc(O[Si](C)(C)C(C)(C)C)cc2)C(=O)N1C(=O)OC(C)(C)C (stereo partly specified),> 100,–,–,–,> 100,> 100,> 100,> 100 µM and 26.2 µM
CC(=O)C1C(=O)C(=O)N(c2cccc([N+](=O)[O-])c2)C1=O (stereo unspecified),> 100,> 100,> 100,> 100,> 100,> 100,–,–
Cc1cc(C)c(-n2[nH]c(=O)n(C)c2=O)c(C)c1,> 100,> 100,> 100,> 100,> 100,> 100,> 100,–
C[C@]12CC[C@@H]3c4cc(OCC(F)(F)F)c(O)cc4CC[C@H]3[C@@H]1CC[C@@H]2O,28.2,16.9,19.3,15.5,12.9,18.3,19,–
O=c1[nH]cc(-c2c[nH]c3ccccc23)nc1-c1c[nH]c2ccccc12,23.2,21.6,31.5,43.4,23.3,70.8,24.1,–
CCN(CC)CC1CCCCN1CC(=O)N1c2ccccc2C(=O)Nc2cccnc21 (stereo unspecified),64.6,> 100,> 100,> 100,> 100,> 100,> 100,–
O=S1(=O)OCCOS(=O)(=O)C1(F)Br,> 100,> 100,> 100,–,> 100,> 100,> 100,–
Cc1cc(S(=O)(=O)Nc2nc3ccccc3nc2-c2cccc([N+](=O)[O-])c2)c(S)cc1Cl,31.5,39.1,33.7,35.3,30.6,38.6,37.3,–
C=C(Br)CNC(=O)Nc1ccc(Cl)c(Cl)c1,30.6,44.7,39.6,> 100,38.8,66,48.6,–
CS(=O)(=O)OCC1CN(S(C)(=O)=O)c2cc(O)ccc21 (stereo unspecified),5.95,4.47,6.61,10.5,8.27,7.26,4.35,–

SMILES,TGI (COLO 205 colon) [µM],TGI (HCC-2998 colon) [µM],TGI (NCI-H23 lung) [µM],TGI (NCI-H460 lung) [µM],TGI (OVCAR-3 ovarian) [µM],TGI (U251 CNS) [µM],TGI (MALME-3M melanoma) [µM],GI50 (COLO 205 colon)
CC(C)(C)OC(=O)NC(Cc1ccccc1)OCc1ccccc1 (stereo unspecified),> 100,43.7,46.3,44.7,49.3,> 10,44.2,–
O=C(O)C12C3CCC(CC3)C1(C(=O)O)C1CCC2C1 (stereo unspecified),> 100,> 100,> 100,> 100,> 100,> 100,> 100,–
CO/C(=N\N=C\c1ccc(OC)c(OC)c1)c1ccncc1,> 10,> 10,> 10,> 10,–,> 10,> 10,–
C=CC[C@@H](N)C(=O)N(C)[C@@H](C)[C@@H](O)c1ccccc1,> 100,–,> 100,> 100,> 100,> 100,–,–
COCc1nc(N)nc(N2N=C(C)CC2(C)C)n1,> 100,> 100,> 100,> 100,> 100,> 100,–,–
CC1=NC(=Cc2cccc(Cl)c2)C(=O)N1n1c(-c2ccccc2)nc2ccccc2c1=O,> 100,54.5,> 100,46.5,–,–,82.1,–
COc1cc2c(c(OC)c1)/C(=C/Sc1ccccc1)C(=O)N(C(C)(C)C)C2,50.6,> 100,77.1,–,53.2,98.6,–,–
CC1(C)C=Cc2c(cc(O)c3c(=O)c4cc(Cl)ccc4[nH]c23)O1,> 10,> 10,6.54,> 10,3.01,> 10,7.5,–
COc1ccc(CC2(O)C3CC4CCC2C4C3)cc1 (stereo unspecified),> 100,–,> 100,> 100,> 100,> 100,> 100,–
CCOC(=O)C1=NOC2(C=C(Br)C(=O)C(Br)=C2)C1,2.7,3.22,9.41,15,–,26.3,1.25,–
CCc1nn(CN2CCOCC2)c(=S)n1/N=C/c1ccc(-c2ccc(Cl)cc2)o1,–,–,> 100,> 100,> 100,> 100,–,–
CC(=O)c1ccc2c(c1)CC1(C2)Cc2cc3c(cc2C1=O)CCC3 (stereo unspecified),31.2,68.4,89.1,76.3,40.6,> 100,39.3,–
CC(C)(C)OC(=O)N/N=C(/N)Cc1ccc(Cl)cc1,> 100,> 100,–,> 100,> 100,> 100,> 100,–
CN(C)c1ccc(C(Cc2ccccc2)C2NC(=S)NC2=O)cc1 (stereo unspecified),> 100,> 100,> 100,> 100,> 100,> 100,> 100,–
NC(N)=NCC[C@H](NC(=O)OCCCCCn1ccc(=O)[nH]c1=O)C(=O)O,> 100,> 100,> 100,> 100,> 100,> 100,> 100,–
O=C1C(Cl)=C(Nc2ccc(S(=O)(=O)O)cc2)C(=O)c2ccccc21,75.6,> 100,> 100,> 100,43.4,> 100,36.9,–
C=CCC1(OCc2ccccc2)C(=O)C(=O)OC1C1COC(C)(C)O1 (stereo unspecified),> 100,> 100,> 100,> 100,> 100,> 100,> 100,–
O=C(CCCN1CCC2(CC1)CC(c1ccccc1)OC2=O)c1ccc(F)cc1 (stereo unspecified),35.4,73.2,> 100,> 100,> 100,> 100,44,–
Nc1n[n+](CC(=O)c2ccccc2)c2sc(-c3ccccc3)nn12,> 100,–,> 100,> 100,> 100,> 100,> 100,–

SMILES,TGI (COLO 205 colon) [µM],TGI (HCC-2998 colon) [µM],TGI (NCI-H23 lung) [µM],TGI (NCI-H460 lung) [µM],TGI (OVCAR-3 ovarian) [µM],TGI (U251 CNS) [µM],TGI (MALME-3M melanoma) [µM],GI50 (COLO 205 colon)
CCOC(=O)c1c(C)nc2c1c(CN(C)C)c(O)c1[nH]c(C)c(C)nc12,40.4,51,89.3,61.1,85.7,68.7,53.4,–
Cc1ccccc1-n1c(=O)c2ncn(C3CCCO3)c2n(-c2ccccc2C)c1=S (stereo unspecified),> 100,> 100,> 100,–,> 100,–,> 100,–
O=C(NC1CCCCC1NC(c1ccccc1)(c1ccccc1)c1ccccc1)C(=O)NC1CCCCC1NC(c1ccccc1)(c1ccccc1)c1ccccc1 (stereo unspecified),> 100,> 100,> 100,> 100,> 100,57.4,> 100,–
CCC1(c2ccccc2)C(=O)N=C(c2ccccc2)N1CCc1ccccc1 (stereo unspecified),> 100,> 100,> 100,–,> 100,> 100,> 100,–
COc1cc(C2SCC(=O)N2c2cccc(Cl)c2)cc(OC)c1OC (stereo unspecified),> 100,> 100,> 100,> 100,–,> 100,–,–
CNC(=O)C1(N)c2ccccc2C=Cc2ccccc21,> 100,–,> 100,–,> 100,> 100,> 100,–
COc1cc2c(cc1OC)C1C=NC(C2)c2cc(OC)c(OC)cc21 (stereo unspecified),> 100,> 100,–,> 100,> 100,> 100,–,–
CN(C)c1ccc(NN=C2SC(=Nc3ccccc3)C(=Nc3ccccc3)S2)cc1,> 100,> 100,> 100,> 100,–,> 100,> 100,–
O=[N+]([O-])c1nccn1CCCNc1ccnc2cc(Cl)ccc12,> 100,55.3,> 100,> 12,> 100,> 100,> 57.3,–
O=C(c1ccccc1)c1ccc2nc(-c3c(Cl)c(Cl)c(Cl)c(Cl)c3C(=O)N/N=C/c3ccc(Cl)cc3)[nH]c2c1,> 100,–,> 100,–,51.5,> 100,> 100,–
CCOC(=O)/C(C=Nc1c(C)n(C)n(-c2ccccc2)c1=O)=C(/C)O,> 100,> 100,> 100,–,> 100,> 100,> 100,–
COc1cc(/C=C/c2nc(NC(=S)Nc3ccccc3)nnc2C)cc(OC)c1OC,32.2,26.4,66.9,36.8,–,> 100,> 100,–
C=CCN1C(=O)/C(=C/c2cccs2)N=C1SC/C=C/C,88.9,> 100,> 100,> 100,> 100,> 100,96.6,–
C[n+]1ccc(/C2=C3\C=CC(=N3)/C(c3cc[n+](C)cc3)=c3/cc/c([nH]3)=C(\c3cc[n+](C)cc3)C3=N/C(=C(/c4cc[n+](C)cc4)C4C=CC2N4)C=C3)cc1,> 100,> 100,> 100,> 100,> 100,> 32.2,> 100,–
C/C(=N\Nc1ccc([N+](=O)[O-])cc1[N+](=O)[O-])c1sc(-n2nc(-c3ccccc3)cc2-c2ccccc2)nc1C,67.4,> 100,> 100,> 100,> 100,> 100,> 100,–
CC1=NNC(=O)C1C1CC(c2c[nH]c3ccccc23)=NNC1=O (stereo unspecified),> 100,–,> 100,> 100,> 100,> 100,> 100,–
Oc1ccc(-c2cc(-c3cc(-c4ccc(O)cc4)no3)on2)cc1,> 100,> 100,> 100,> 100,> 100,> 100,> 100,–
O=C(NNCC(O)COc1ccccc1)c1ccccc1 (stereo unspecified),> 100,> 100,> 100,–,> 100,> 100,> 100,–
